Laboratory results: ChEMBL document CHEMBL3045679, “Microwave-assisted synthesis and pharmacological studies of novel 5-deazaalloxazine derivatives” (2012)
Converted amounts (≈) assume the structure as drawn. The source made the active and inactive calls. The calls are words filed in the database; no cut-off is given here.

Columns and labels:
Lipomyces lipofer [1] = test: Antifungal activity against Lipomyces lipofer NCIM 3252 at 500 ug/disk after 72 hr by disk diffusion method; type: functional
Escherichia coli [2] = test: Antibacterial activity against Escherichia coli NCIM 2065 at 1000 ug/disk after 24 hr by disk diffusion method; type: functional; conditions: NCIM 2065, 24 h, read-out: DIZ
Bacillus cereus [3] = test: Antibacterial activity against Bacillus cereus NCIM 2155 at 1000 ug/disk after 24 hr by disk diffusion method; type: functional; conditions: NCIM 2155, 24 h, read-out: DIZ
Streptomyces albus [4] = test: Antibacterial activity against Streptomyces albus NCIM 2178 at 500 ug/disk after 24 hr by disk diffusion method; type: functional, organism-based
Klebsiella aerogenes [5] = test: Antibacterial activity against Enterobacter aerogenes NCIM 2239 at 1000 ug/disk after 24 hr by disk diffusion method; type: functional; conditions: NCIM 2239, 24 h, read-out: DIZ
Aspergillus niger [6] = test: Antifungal activity against Aspergillus niger NCIM 1196 at 1000 ug/disk after 72 hr by disk diffusion method; type: functional; conditions: NCIM 1196, 72 h, read-out: DIZ
Klebsiella aerogenes [7] = test: Antibacterial activity against Enterobacter aerogenes NCIM 2239 after 24 hr by broth dilution assay; type: functional; conditions: NCIM 2239, 24 h
Rhodotorula mucilaginosa [8] = test: Antifungal activity against Rhodotorula mucilaginosa NCIM 3174 after 72 hr by broth dilution assay; type: functional; conditions: NCIM 3174, 72 h
Bacillus subtilis [9] = test: Antibacterial activity against Bacillus subtilis NCIM 2063 after 24 hr by broth dilution assay; type: functional; conditions: NCIM 2063, 24 h
Lipomyces lipofer [10] = test: Antifungal activity against Lipomyces lipofer NCIM 3252 at 1000 ug/disk after 72 hr by disk diffusion method; type: functional
Candida albicans [11] = test: Antifungal activity against Candida albicans NCIM 3471 after 72 hr by broth dilution assay; type: functional; conditions: NCIM 3471, 72 h
Aspergillus flavus [12] = test: Antifungal activity against Aspergillus flavus NCIM 535 at 500 ug/disk after 72 hr by disk diffusion method; type: functional
Aspergillus niger [13] = test: Antifungal activity against Aspergillus niger NCIM 1196 at 500 ug/disk after 72 hr by disk diffusion method; type: functional
Candida albicans [14] = test: Antifungal activity against Candida albicans NCIM 3471 at 1000 ug/disk after 72 hr by disk diffusion method; type: functional
Candida albicans [15] = test: Antifungal activity against Candida albicans NCIM 3471 at 500 ug/disk after 72 hr by disk diffusion method; type: functional
Rhodotorula mucilaginosa [16] = test: Antifungal activity against Rhodotorula mucilaginosa NCIM 3174 at 500 ug/disk after 72 hr by disk diffusion method; type: functional
Penicillium chrysogenum [17] = test: Antifungal activity against Penicillium chrysogenum NCIM 707 at 1000 ug/disk after 72 hr by disk diffusion method; type: functional
Bacillus subtilis [18] = test: Antibacterial activity against Bacillus subtilis NCIM 2063 at 500 ug/disk after 24 hr by disk diffusion method; type: functional
Rhodotorula mucilaginosa [19] = test: Antifungal activity against Rhodotorula mucilaginosa NCIM 3174 at 1000 ug/disk after 72 hr by disk diffusion method; type: functional; conditions: NCIM 3174, 72 h, read-out: DIZ
Penicillium chrysogenum [20] = test: Antifungal activity against Penicillium chrysogenum NCIM 707 at 500 ug/disk after 72 hr by disk diffusion method; type: functional
Pseudomonas aeruginosa [21] = test: Antibacterial activity against Pseudomonas aeruginosa NCIM 2200 after 24 hr by broth dilution assay; type: functional; conditions: NCIM 2200, 24 h
Aspergillus flavus [22] = test: Antifungal activity against Aspergillus flavus NCIM 535 at 1000 ug/disk after 72 hr by disk diffusion method; type: functional; conditions: NCIM 535, 72 h, read-out: DIZ
Escherichia coli [23] = test: Antibacterial activity against Escherichia coli NCIM 2065 at 500 ug/disk after 24 hr by disk diffusion method; type: functional
Klebsiella aerogenes [24] = test: Antibacterial activity against Enterobacter aerogenes NCIM 2239 at 500 ug/disk after 24 hr by disk diffusion method; type: functional
Bacillus subtilis [25] = test: Antibacterial activity against Bacillus subtilis NCIM 2063 at 1000 ug/disk after 24 hr by disk diffusion method; type: functional; conditions: NCIM 2063, 24 h, read-out: DIZ
Bacillus cereus [26] = test: Antibacterial activity against Bacillus cereus NCIM 2155 at 500 ug/disk after 24 hr by disk diffusion method; type: functional
Escherichia coli [27] = test: Antibacterial activity against Escherichia coli NCIM 2065 after 24 hr by broth dilution assay; type: functional; conditions: NCIM 2065, 24 h
Bacillus cereus [28] = test: Antibacterial activity against Bacillus cereus NCIM 2155 after 24 hr by broth dilution assay; type: functional; conditions: NCIM 2155, 24 h
Pseudomonas aeruginosa [29] = test: Antibacterial activity against Pseudomonas aeruginosa NCIM 2200 at 1000 ug/disk after 24 hr by disk diffusion method; type: functional; conditions: NCIM 2200, 24 h, read-out: DIZ
Streptomyces albus [30] = test: Antibacterial activity against Streptomyces albus NCIM 2178 at 1000 ug/disk after 24 hr by disk diffusion method; type: functional
Pseudomonas aeruginosa [31] = test: Antibacterial activity against Pseudomonas aeruginosa NCIM 2200 at 500 ug/disk after 24 hr by disk diffusion method; type: functional
Aspergillus niger [32] = test: Antifungal activity against Aspergillus niger NCIM 1196 after 72 hr by broth dilution assay; type: functional; conditions: NCIM 1196, 72 h
Lipomyces lipofer [33] = test: Antifungal activity against Lipomyces lipofer NCIM 3252 after 72 hr by broth dilution assay; type: functional; conditions: NCIM 3252, 72 h

Compound	zone of inhibition at 1000 µg/disc (Escherichia coli [2]) [mm]	zone of inhibition at 1000 µg/disc (Bacillus cereus [3]) [mm]	diameter of the inhibition zone (DIZ) (Streptomyces albus [4])	zone of inhibition at 1000 µg/disc (Klebsiella aerogenes [5]) [mm]	zone of inhibition at 1000 µg/disc (Aspergillus niger [6]) [mm]	MIC (Klebsiella aerogenes [7]) [µg/mL]	MIC (Bacillus subtilis [9]) [µg/mL]	diameter of the inhibition zone (DIZ) (Aspergillus flavus [12])	diameter of the inhibition zone (DIZ) (Candida albicans [15])	diameter of the inhibition zone (DIZ) (Bacillus subtilis [18])	zone of inhibition at 1000 µg/disc (Rhodotorula mucilaginosa [19]) [mm]	diameter of the inhibition zone (DIZ) (Penicillium chrysogenum [20])	MIC (Pseudomonas aeruginosa [21]) [µg/mL]	zone of inhibition at 1000 µg/disc (Aspergillus flavus [22]) [mm]	zone of inhibition at 1000 µg/disc (Bacillus subtilis [25]) [mm]	MIC (Escherichia coli [27]) [µg/mL]	MIC (Bacillus cereus [28]) [µg/mL]	zone of inhibition at 1000 µg/disc (Pseudomonas aeruginosa [29]) [mm]	diameter of the inhibition zone (DIZ) (Pseudomonas aeruginosa [31])	MIC (Aspergillus niger [32]) [µg/mL]	further results
COc1cccc2cc3c(=O)[nH]c(=O)[nH]c3nc12	12	12	inactive	8	11	62.5 (≈ 257 µM)	62.5 (≈ 257 µM)	inactive	inactive	inactive	10	inactive	62.5 (≈ 257 µM)	8	10	7.8 (≈ 32.1 µM)	31.5 (≈ 130 µM)	10	inactive	125 (≈ 514 µM)	diameter of the inhibition zone (DIZ) (Lipomyces lipofer [1]): inactive; MIC (Rhodotorula mucilaginosa [8]): 31.2 µg/mL (≈ 128 µM); diameter of the inhibition zone (DIZ) (Lipomyces lipofer [10]): inactive; MIC (Candida albicans [11]): 125 µg/mL (≈ 514 µM); diameter of the inhibition zone (DIZ) (Aspergillus niger [13]): inactive; zone of inhibition at 1000 µg/disc (Candida albicans [14]; NCIM 3471, 72 h, read-out: DIZ): 12 mm; zone of inhibition at 500 µg/disc (Rhodotorula mucilaginosa [16]; NCIM 3174, 72 h, read-out: DIZ): 8 mm; zone of inhibition at 1000 µg/disc (Penicillium chrysogenum [17]; NCIM 707, 72 h, read-out: DIZ): 8 mm; diameter of the inhibition zone (DIZ) (Escherichia coli [23]): inactive; diameter of the inhibition zone (DIZ) (Klebsiella aerogenes [24]): inactive; diameter of the inhibition zone (DIZ) (Bacillus cereus [26]): inactive; diameter of the inhibition zone (DIZ) (Streptomyces albus [30]): inactive
Cc1ccc2nc3[nH]c(=S)[nH]c(=O)c3cc2c1	11	10	inactive	13	14	7.8 (≈ 32.1 µM)	31.2 (≈ 128 µM)	inactive	inactive	inactive	9	inactive	62.5 (≈ 257 µM)	8	12	31.2 (≈ 128 µM)	62.5 (≈ 257 µM)	12	inactive	3.9 (≈ 16 µM)	zone of inhibition at 500 µg/disc (Lipomyces lipofer [1]; NCIM 3252, 72 h, read-out: DIZ): 9 mm; MIC (Lipomyces lipofer [33]): 62.5 µg/mL (≈ 257 µM); zone of inhibition at 1000 µg/disc (Lipomyces lipofer [10]; NCIM 3252, 72 h, read-out: DIZ): 10 mm; zone of inhibition at 500 µg/disc (Aspergillus niger [13]; NCIM 1196, 72 h, read-out: DIZ): 11 mm; diameter of the inhibition zone (DIZ) (Candida albicans [14]): inactive; diameter of the inhibition zone (DIZ) (Rhodotorula mucilaginosa [16]): inactive; diameter of the inhibition zone (DIZ) (Penicillium chrysogenum [17]): inactive; zone of inhibition at 500 µg/disc (Escherichia coli [23]; NCIM 2065, 24 h, read-out: DIZ): 9 mm; zone of inhibition at 500 µg/disc (Klebsiella aerogenes [24]; NCIM 2239, 24 h, read-out: DIZ): 9 mm; zone of inhibition at 500 µg/disc (Bacillus cereus [26]; NCIM 2155, 24 h, read-out: DIZ): 8 mm; zone of inhibition at 1000 µg/disc (Streptomyces albus [30]; NCIM 2178, 24 h, read-out: DIZ): 9 mm
